For 18 compounds, IC50 results are on record in patent US20260053834A1, “COVALENT MODIFIERS OF AKT1 AND USES THEREOF” (Terremoto Biosciences, Inc., priority 2023, published 2026).

The target of one test is T1, AKT1 E17K (Homo sapiens, UniProt P31749, E17K).
T1 construct: expressed in transfected cells; host or cells: HEK293
Put plainly: Live cell target engagement by NanoBRET competitive probe displacement, AKT1 E17K. In kind it is binding. As to conditions: transfected HEK293 cells, 2 h at 37° C., read-out: AKT1 E17K IC50: GeoMean IC50.

Test [1] deals with LAPC4 prostate cancer cells, which express the AKT1 E17K allele. Put plainly: Antiproliferative effects in LAPC4 cells (CellTiter Glo, 72 h). It is filed as cell-based. The conditions noted are these: Homo sapiens, LAPC4, 72 h, read-out: LAPC4 proliferation IC50: GeoMean IC50. In a few lines: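 Cells grown in IMDM with 12% FBS, seeded at 1,000 cells/well and treated with compound dilutions in DMSO for 72 h. Intracellular ATP read by luminescence. IC50 from a log(inhibitor) vs. response Hill fit.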
For orientation: In ATP-based viability assays light output follows the ATP content of the culture.

For another test, the target named is T2, AKT1 WT (Homo sapiens, UniProt P31749).
T2 construct: expressed in transfected cells; host or cells: HEK293
Put plainly: Live cell target engagement by NanoBRET competitive probe displacement, AKT1 WT. In kind it is binding. As to conditions: transfected HEK293 cells, 2 h at 37° C., read-out: AKT1 WT IC50: GeoMean IC50. In general terms: In BRET a luciferase serves as donor, and the signal depends on an acceptor being close.

For a further test, the target named is T3, AKT2 (Homo sapiens, UniProt P31751).
T3 construct: expressed in transfected cells; host or cells: HEK293
Put plainly: Live cell target engagement by NanoBRET competitive probe displacement, AKT2. It is filed as binding. The conditions noted are these: transfected HEK293 cells, 2 h at 37° C., read-out: AKT2 IC50: GeoMean IC50.

The structures appear in SMILES notation.

T3 sequence (P31751 whole entry): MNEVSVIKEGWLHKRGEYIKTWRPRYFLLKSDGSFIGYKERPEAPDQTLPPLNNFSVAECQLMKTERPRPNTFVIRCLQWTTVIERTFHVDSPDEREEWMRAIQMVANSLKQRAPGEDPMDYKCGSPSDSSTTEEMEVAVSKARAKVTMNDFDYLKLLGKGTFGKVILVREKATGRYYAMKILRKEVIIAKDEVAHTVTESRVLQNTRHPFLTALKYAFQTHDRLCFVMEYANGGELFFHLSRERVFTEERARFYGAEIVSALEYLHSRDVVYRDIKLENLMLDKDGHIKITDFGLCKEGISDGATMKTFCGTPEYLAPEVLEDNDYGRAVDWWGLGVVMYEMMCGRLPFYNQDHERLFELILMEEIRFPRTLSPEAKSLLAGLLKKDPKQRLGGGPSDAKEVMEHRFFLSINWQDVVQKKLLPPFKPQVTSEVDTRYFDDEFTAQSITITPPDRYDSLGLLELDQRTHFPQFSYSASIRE
T1 sequence (P31749 whole entry E17K): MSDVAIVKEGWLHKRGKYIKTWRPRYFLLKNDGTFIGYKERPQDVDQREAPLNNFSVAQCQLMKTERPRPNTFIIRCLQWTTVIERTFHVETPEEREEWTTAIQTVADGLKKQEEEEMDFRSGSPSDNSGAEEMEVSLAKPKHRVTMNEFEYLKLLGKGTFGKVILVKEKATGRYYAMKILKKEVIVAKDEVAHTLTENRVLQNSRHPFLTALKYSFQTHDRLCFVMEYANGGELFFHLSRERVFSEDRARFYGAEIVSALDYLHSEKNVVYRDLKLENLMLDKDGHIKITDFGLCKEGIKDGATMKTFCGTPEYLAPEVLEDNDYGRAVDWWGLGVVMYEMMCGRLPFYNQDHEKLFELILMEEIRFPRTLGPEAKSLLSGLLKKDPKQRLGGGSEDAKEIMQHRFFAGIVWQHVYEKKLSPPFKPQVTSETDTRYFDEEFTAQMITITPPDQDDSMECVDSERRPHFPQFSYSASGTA
T2 sequence (P31749 whole entry): as the sequence (P31749 whole entry E17K) above, with K17E counted along it

For the compound `Nc1ncccc1-c1nc2c(N3CCC3)cc(-n3cccn3)nc2n1-c1ccc2c(c1)CC[C@@H]2NC(=O)c1ccc(O)c(C=O)c1` [Example 231, N-[(1S)-5-[2-(2-aminopyridin-3-yl)-7-(azetidin-1-yl)-5-(pyrazol-1-yl)imidazo[4,5-b]pyridin-3-yl]-2,3-dihydro-1H-inden-1-yl]-3-formyl-4-hydroxybenzamide], the IC50 at AKT1 E17K lay in the range of 10 to 100 nM; in test [1], 100 to 2000 nM; on AKT1 WT it was 10 to 100 nM; on AKT2, 100 to 2000 nM.
Take `COc1c(O)c(C=O)cc(C(=O)N[C@H]2CCc3cc(-n4c(-c5cccnc5N)nc5ccc(-n6cccn6)nc54)ccc32)c1F` [Example 214, N-[(1S)-5-[2-(2-aminopyridin-3-yl)-5-(pyrazol-1-yl)imidazo[4,5-b]pyridin-3-yl]-2,3-dihydro-1H-inden-1-yl]-2-fluoro-5-formyl-4-hydroxy-3-methoxybenzamide]: the IC50 was less than 10 nM at AKT1 E17K, 10 to 100 nM in test [1], 10 to 100 nM on AKT1 WT and 100 to 2000 nM on AKT2.
As for `Nc1ncccc1-c1nc2ccc(-c3ncco3)nc2n1-c1ccc2c(c1)CC[C@@H]2NC(=O)c1cc(C=O)c(O)c(F)c1F` [Example 150, N-[(1S)-5-[2-(2-aminopyridin-3-yl)-5-(1,3-oxazol-2-yl)imidazo[4,5-b]pyridin-3-yl]-2,3-dihydro-1H-inden-1-yl]-2,3-difluoro-5-formyl-4-hydroxybenzamide], the IC50 at AKT1 E17K fell in the range of 10 to 100 nM; in test [1], 10 to 100 nM; at AKT1 WT, 10 to 100 nM; on AKT2, 100 to 2000 nM.
For `Nc1ncccc1-c1nc2ccc(-n3cccn3)nc2n1-c1ccc2c(c1)C1CC1C2NC(=O)c1ccc(O)c(C=O)c1` (stereo not drawn) [Example 252, N-(3-(2-(2-aminopyridin-3-yl)-5-(1H-pyrazol-1-yl)-3H-imidazo[4,5-b]pyridin-3-yl)-1,1a,6,6a-tetrahydrocyclopropa[a]inden-6-yl)-3-formyl-4-hydroxybenzamide], the IC50 at AKT1 E17K was 100 to 2000 nM; in test [1] it was 100 to 2000 nM; on AKT1 WT, 100 to 2000 nM; at AKT2, not below 2000 nM.
As for `Cc1cc(O)c(C=O)cc1C(=O)N[C@H]1CCc2cc(-n3c(-c4cccnc4N)nc4ccc(-n5cccn5)nc43)ccc21` [Example 149, N-[(1S)-5-[2-(2-aminopyridin-3-yl)-5-(pyrazol-1-yl)imidazo[4,5-b]pyridin-3-yl]-2,3-dihydro-1H-inden-1-yl]-5-formyl-4-hydroxy-2-methylbenzamide], the IC50 at AKT1 E17K is 10 to 100 nM; in test [1], 100 to 2000 nM; at AKT1 WT it was 100 to 2000 nM; on AKT2, 100 to 2000 nM.
For `Nc1ncccc1-c1nc2ccc(-c3ccn(C(F)F)n3)nc2n1-c1ccc2c(c1)CC[C@@H]2NC(=O)c1cc(C=O)c(O)cc1F` [Example 158, N-[(1S)-5-[2-(2-aminopyridin-3-yl)-5-[1-(difluoromethyl)pyrazol-3-yl]imidazo[4,5-b]pyridin-3-yl]-2,3-dihydro-1H-inden-1-yl]-2-fluoro-5-formyl-4-hydroxybenzamide], the IC50 at AKT1 E17K fell in the range of 10 to 100 nM; in test [1], 10 to 100 nM; at AKT1 WT, 10 to 100 nM; at AKT2, 100 to 2000 nM.
Take `Nc1ncccc1-c1nc2ccc(-c3nc(C(F)F)cs3)nc2n1-c1ccc2c(c1)CC[C@@H]2NC(=O)c1ccc(O)c(C=O)c1` [Example 147, N-[(1S)-5-[2-(2-aminopyridin-3-yl)-5-[4-(difluoromethyl)-1,3-thiazol-2-yl]imidazo[4,5-b]pyridin-3-yl]-2,3-dihydro-1H-inden-1-yl]-3-formyl-4-hydroxybenzamide]: the IC50 at AKT1 E17K is 10 to 100 nM; in test [1], 10 to 100 nM; on AKT1 WT, 10 to 100 nM; at AKT2, 100 to 2000 nM.
As for `Nc1ncccc1-c1nc2ccc(-n3ccc(CO)n3)nc2n1-c1ccc2c(c1)CC[C@@H]2NC(=O)c1ccc(O)c(C=O)c1` [Example 127, (S)—N-(5-(2-(2-aminopyridin-3-yl)-5-(3-(hydroxymethyl)-1H-pyrazol-1-yl)-3H-imidazo[4,5-b]pyridin-3-yl)-2,3-dihydro-1H-inden-1-yl)-3-formyl-4-hydroxybenzamide], the IC50 was 10 to 100 nM on AKT1 E17K, 10 to 100 nM in test [1], 10 to 100 nM at AKT1 WT and 100 to 2000 nM at AKT2.
On to `Cc1cc(-n2ccc(F)n2)nc2c1nc(-c1cccnc1N)n2-c1ccc2c(c1)CC[C@@H]2NC(=O)c1cc(C=O)c(O)c(F)c1F` [Example 199, N-[(1S)-5-[2-(2-aminopyridin-3-yl)-5-(3-fluoropyrazol-1-yl)-7-methylimidazo[4,5-b]pyridin-3-yl]-2,3-dihydro-1H-inden-1-yl]-2,3-difluoro-5-formyl-4-hydroxybenzamide], for which the IC50 is less than 10 nM at AKT1 E17K, 100 to 2000 nM in test [1], less than 10 nM on AKT1 WT and 100 to 2000 nM on AKT2.
For the compound `Nc1ncccc1-c1nc2ccc(-n3nccn3)nc2n1-c1ccc2c(c1)CC[C@@H]2NC(=O)c1cc(C=O)c(O)c(F)c1F` [Example 118, (S)—N-(5-(2-(2-aminopyridin-3-yl)-5-(2H-1,2,3-triazol-2-yl)-3H-imidazo[4,5-b]pyridin-3-yl)-2,3-dihydro-1H-inden-1-yl)-2,3-difluoro-5-formyl-4-hydroxybenzamide], the IC50 was in the range of 10 to 100 nM on AKT1 E17K, 10 to 100 nM in test [1], 10 to 100 nM at AKT1 WT and 100 to 2000 nM at AKT2.
Regarding `Cc1cc(-n2nccn2)nc2c1nc(-c1cccnc1N)n2-c1ccc2c(c1)CC[C@@H]2NC(=O)c1ccc(O)c(C=O)c1` [Example 234, N-[(1S)-5-[2-(2-aminopyridin-3-yl)-7-methyl-5-(1,2,3-triazol-2-yl)imidazo[4,5-b]pyridin-3-yl]-2,3-dihydro-1H-inden-1-yl]-3-formyl-4-hydroxybenzamide], the IC50 at AKT1 E17K was in the range of 10 to 100 nM; in test [1], 10 to 100 nM; on AKT1 WT it was 10 to 100 nM; on AKT2, 100 to 2000 nM.
As for `CS(=O)(=O)Nc1ccc(C(=O)N[C@H]2CCc3cc(-n4c(-c5cccnc5N)nc5ccc(-c6ccccc6)nc54)ccc32)cc1C=O` [Example 51, N-[(1S)-5-[2-(2-aminopyridin-3-yl)-5-phenylimidazo[4,5-b]pyridin-3-yl]-2,3-dihydro-1H-inden-1-yl]-3-formyl-4-methanesulfonamidobenzamide], the IC50 is less than 10 nM on AKT1 E17K, 10 to 100 nM in test [1], 10 to 100 nM at AKT1 WT and 10 to 100 nM on AKT2.
Regarding `COc1cc(-n2cccn2)nc2c1nc(-c1cccnc1N)n2-c1ccc2c(c1)CC[C@@H]2NC(=O)c1cc(C=O)c(O)c(F)c1F` [Example 222, N-[(1S)-5-[2-(2-aminopyridin-3-yl)-7-methoxy-5-(pyrazol-1-yl)imidazo[4,5-b]pyridin-3-yl]-2,3-dihydro-1H-inden-1-yl]-2,3-difluoro-5-formyl-4-hydroxybenzamide], the IC50 (on AKT1 E17K; in test [1]; at AKT1 WT; on AKT2) was 10 to 100 nM throughout.
As to `Nc1ncccc1-c1nc2ccc(-n3cccn3)nc2n1-c1ccc2c(c1)CC[C@@H]2NC(=O)c1csc(C=O)n1` [Example 143, (S)—N-(5-(2-(2-aminopyridin-3-yl)-5-(1H-pyrazol-1-yl)-3H-imidazo[4,5-b]pyridin-3-yl)-2,3-dihydro-1H-inden-1-yl)-2-formylthiazole-4-carboxamide], the IC50 (at AKT1 E17K; in test [1]; at AKT1 WT; on AKT2) was 100 to 2000 nM in each case.
`Nc1ncccc1-c1nc2ccc(-c3ccccc3)nc2n1-c1ccc2c(c1)CC[C@@H]2NC(=O)c1cc(C=O)c2[nH]ncc2c1` [Example 35, N-[(1S)-5-[2-(2-aminopyridin-3-yl)-5-phenylimidazo[4,5-b]pyridin-3-yl]-2,3-dihydro-1H-inden-1-yl]-7-formyl-1H-indazole-5-carboxamide]: the IC50 was less than 10 nM at AKT1 E17K, less than 10 nM in test [1], 10 to 100 nM on AKT1 WT and 10 to 100 nM at AKT2.
For the compound `CC(=O)Nc1ccc(C(=O)N[C@H]2CCc3cc(-n4c(-c5cccnc5N)nc5ccc(C)nc54)ccc32)cc1C=O` [Example 45, N-[(1S)-5-[2-(2-aminopyridin-3-yl)-5-methylimidazo[4,5-b]pyridin-3-yl]-2,3-dihydro-1H-inden-1-yl]-4-acetamido-3-formylbenzamide], the IC50 is 100 to 2000 nM at AKT1 E17K, 100 to 2000 nM in test [1], 100 to 2000 nM at AKT1 WT and not below 2000 nM on AKT2.
On to `Nc1ncccc1-c1nc2ccc(-n3cccn3)nc2n1-c1ccc2c(c1)CC[C@@H]2NC(=O)c1cc(C=O)c(O)c2nccn12` [Example 169, N-[(1S)-5-[2-(2-aminopyridin-3-yl)-5-(pyrazol-1-yl)imidazo[4,5-b]pyridin-3-yl]-2,3-dihydro-1H-inden-1-yl]-7-formyl-8-hydroxyimidazo[1,2-a]pyridine-5-carboxamide], for which the IC50 on AKT1 E17K is not below 2000 nM; in test [1] it was 100 to 2000 nM; at AKT1 WT, not below 2000 nM; at AKT2 it was not below 2000 nM.
With `Nc1ncccc1-c1nc2c(Cl)cc(-n3cccn3)nc2n1-c1ccc2c(c1)CC[C@@H]2NC(=O)c1cc(C=O)c(O)c(F)c1F` [Example 212, N-[(1S)-5-[2-(2-aminopyridin-3-yl)-7-chloro-5-(pyrazol-1-yl)imidazo[4,5-b]pyridin-3-yl]-2,3-dihydro-1H-inden-1-yl]-2,3-difluoro-5-formyl-4-hydroxybenzamide], the IC50 was less than 10 nM on AKT1 E17K, 10 to 100 nM in test [1], less than 10 nM at AKT1 WT and 10 to 100 nM at AKT2.
